In article PMC5750218, “Protein-inspired antibiotics active against vancomycin- and daptomycin-resistant bacteria” (Nature Communications, 2018):
Values after ≈ are worked out from the molar mass of the structure shown. Where two headings read alike, the source gives them in different places.

Columns and labels:
[1] = Cytotoxicity MTT assay; type: cell-based, human; settings: human
[2] = tested on: Methicillin-sensitive S. aureus ATCC 29213; assay: microbe, parasite or virus in culture; type: cell-based, Staphylococcus aureus; settings: for MIC: Staphylococcus aureus, ATCC 29213 / MSSA
Experimental: Antimicrobial activity of compounds was tested against a number of bacterial strains by broth microdilution (BMD) assay with MIC determination, including S. aureus (MSSA ATCC® 29213™, MRSA ATCC® 43300™, VISA NARSA NRS1, VISA NARSA NRS4), Streptococcus pneumoniae (MDR ATCC® 700677™) and Enterococcus faecium (MDR VanA ATCC® 51559™). ATCC strains were sourced from the American Type Culture Collection and NRS strains from NARSA (Network on Antimicrobial Resistance in S. aureus) via BEI Resources (www.beiresources.org). All compounds were prepared to 160 µg mL^−1 solution in water from a stock solution of 1 mM concentration.
[…] […] Standards ranged from 64 to 0.03 µg mL^−1 and compounds from 8 to 0.003 µg mL^−1 with final assay volumes of 100 µL per well. Gram-positive bacteria were cultured in Mueller Hinton broth (MHB) (Bactolaboratories, Cat. no. 211443) at 37 °C overnight. A sample of each culture was then diluted 40-fold in fresh MHB and incubated at 37 °C for 2–3 h. The resultant mid-log phase cultures were added to the compound-containing 96-well plates to give a final cell density of 5 × 10^5 colony forming unit (CFU) mL^−1. All the plates were covered and incubated at 37 °C for 24 h. MICs were the lowest concentration showing no visible growth.

[3] = tested on: Vancomycin-resistant S. aureus NARSA VRS4; assay: microbe, parasite or virus in culture; type: cell-based, Staphylococcus aureus
[4] = Cytotoxicity MTT assay; type: cell-based, human; settings: human; remark: listed apart in the source
How it was run: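 HepG2 and HEK293 cells, 1.5 × 10^4 per well in DMEM with 1% FBS, were allowed to attach for 24 h, then exposed 24 h at 37 °C to compounds at 100 µM to 0.046 µM in threefold steps. MTT (0.4 mg mL^−1) was added for 2 h, and formazan in DMSO was read at 570 nm. Viability is given as percent of control, corrected for a positive control.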

[5] = tested on: Vancomycin-intermediate S. aureus NRS1; assay: microbe, parasite or virus in culture
How it was run: (§1)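 Overnight cultures in MHB were diluted 40-fold and regrown 2–3 h at 37 °C, then exposed to twofold compound dilutions (8 to 0.003 µg mL^−1) for 24 h at 37 °C. The lowest concentration without visible growth was recorded as the MIC.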

[6] = tested on: Vancomycin-resistant (VanA) Enterococcus faecium ATCC 51559; assay: microbe, parasite or virus in culture
How it was run: as §1

[7] = tested on: Multi-drug-resistant S. pneumoniae ATCC 700677; assay: microbe, parasite or virus in culture
How it was run: as §1

[8] = tested on: S. aureus ATCC 43300; assay: Membrane permeability assay (propidium iodide); type: cell-based, Staphylococcus aureus; settings: for Fold higher propidium iodide fluorescence than oritavancin: 16 µg mL^−1, MRSA ATCC 43300
Experimental: To evaluate the ability of the compounds to disrupt the cytoplasmic membrane integrity, the membrane impermeable fluorescent DNA intercalating dye propidium iodide (PI) was used. Early exponential phase cells were pelleted and washed twice in 10 mM HEPES buffer (pH 7.4) containing 50 µg mL^−1 of CaCl2 and 5 mM glucose, and then re-suspended in the same buffer (4 × 10^8 CFU mL^−1). Cell suspension was added to a 384-well black walled polystyrene plate (Corning, CLS3573) containing compounds, giving a final concentration of 16 µg mL^−1. After 1 h incubation at 37 °C, 5 µg mL^−1 of PI was added and fluorescence was monitored for 90 min using a Tecan Infinite® m1000 Pro Multi-mode reader (excitation/emission 535/620 nm). Data were corrected by subtraction of fluorescence signal arising from untreated cells in the presence of PI. […] Each sample was tested in quadruplicate and independent assays were performed twice showing similar results. Data was analysed and presented using Prism software.

## CCCCCCCCCCC(=O)N[C@@H](CCCCN)C(=O)N[C@@H](CCCCN)C(=O)N[C@@H](CCCCNC(=O)[C@H]1NC(=O)[C@H]2NC(=O)[C@H](NC(=O)[C@@H]3NC(=O)[C@H](CC(N)=O)NC(=O)[C@H](NC(=O)[C@@H](CC(C)C)NC)[C@H](O)c4ccc(c(Cl)c4)Oc4cc3cc(c4O[C@@H]3O[C@H](CO)[C@@H](O)[C@H](O)[C@H]3O[C@H]3C[C@](C)(N)[C@H](O)[C@H](C)O3)Oc3ccc(cc3Cl)[C@H]2O)c2ccc(O)c(c2)-c2c(O)cc(O)cc21)C(=O)O [Compound 19, nC10CO-KK-K(Vancomycin)-OH]
[1]
  CC50 at 24 h: 290 µM
[2]; ATCC 29213
  MIC S. aureus ATCC29213 MSSA, NBS: ≤ 0.016 µg/mL
  MIC S. aureus ATCC29213 MSSA, PP: 0.125 to 0.25 µg/mL
  MIC S. aureus ATCC29213 MSSA, PS: 0.03 to 0.06 µg/mL
  MIC S. aureus ATCC29213 MSSA, PS+P-80: 0.031 µg/mL (≈ 0.0155 µM)
[3]; Vancomycin-resistant NARSA VRS4
  MIC VRSA: 1 µg/mL (≈ 0.499 µM)
[4]
  CC50 at 24 h: 355 µM
[5]; Vancomycin-intermediate NRS1
  MIC VISA: 0.5 µg/mL (≈ 0.25 µM)
[6]; ATCC 51559
  MIC VRE: 6 µg/mL (≈ 3 µM)
[7]; ATCC 700677
  MIC MDR S.P.: 0.06 µg/mL (≈ 0.03 µM)
[8]
  Membrane permeabilisation (propidium iodide fluorescence): little to no effect

## CCCCCCCCCC(=O)N[C@@H](Cc1c[nH]c2ccccc12)C(=O)N[C@H](CC(N)=O)C(=O)N[C@@H](CC(=O)O)C(=O)N[C@@H]1C(=O)NCC(=O)N[C@@H](CCCN)C(=O)N[C@@H](CC(=O)O)C(=O)N[C@H](C)C(=O)N[C@@H](CC(=O)O)C(=O)NCC(=O)N[C@H](CO)C(=O)N[C@@H]([C@H](C)CC(=O)O)C(=O)N[C@@H](CC(=O)c2ccccc2N)C(=O)O[C@@H]1C [Compound 4, Daptomycin]
[1]
  CC50 at 24 h: > 500 µM
[2]; S. aureus ATCC 29213, read-out: MIC MSSA
  MIC: 1 µg/mL (≈ 0.617 µM)
[2]; non-binding surface plate, read-out: MIC S. aureus ATCC29213 MSSA, NBS
  MIC: 0.5 to 1 µg/mL (≈ 0.309 to 0.617 µM)
[2]; polypropylene plate, read-out: MIC S. aureus ATCC29213 MSSA, PP
  MIC: 1 µg/mL (≈ 0.617 µM)
[2]; polystyrene plate with 0.002% polysorbate-80, read-out: MIC S. aureus ATCC29213 MSSA, PS+P-80
  MIC: 1 µg/mL (≈ 0.617 µM)
[2]; polystyrene plate, no polysorbate-80, read-out: MIC S. aureus ATCC29213 MSSA, PS
  MIC: 1 µg/mL (≈ 0.617 µM)
[3]; Staphylococcus aureus, VRSA, S. aureus NARSA VRS4, read-out: MIC VRSA
  MIC: 3 µg/mL (≈ 1.85 µM)
[4]
  CC50 at 24 h: > 500 µM
[5]; Staphylococcus aureus, NRS1 / VISA, read-out: MIC VISA
  MIC: 12 µg/mL (≈ 7.4 µM)
[6]; Enterococcus faecium, ATCC51559 / VRE, read-out: MIC VRE
  MIC: 16 µg/mL (≈ 9.87 µM)
[7]; Streptococcus pneumoniae, ATCC700677, read-out: MIC MDR S.P.
  MIC: 2 µg/mL (≈ 1.23 µM)
[8]; listed as Daptomycin
  Fold higher propidium iodide fluorescence than oritavancin: 4–6 fold
[8]; listed as daptomycin
  Fold higher propidium iodide fluorescence than oritavancin: approximately 6 fold
